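48-hour exposure; five concentrations; linearly interpolated endpoints. Definition used: TGI = concentration required for complete inhibition of growth.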
Experiments:
Assay in all cases: NCI-60 cell line screen, 48 h
[1] = system: HOP-62 NSCLC
[2] = system: SK-MEL-2 melanoma
[3] = system: CAKI-1 renal
[4] = system: SK-MEL-5 melanoma
[5] = system: MALME-3M melanoma
[6] = system: SF-539 CNS
[7] = system: 786-0 renal
[8] = system: OVCAR-4 ovarian
[9] = system: SR leukemia
[10] = system: KM12 colon
[11] = system: OVCAR-3 ovarian
[12] = system: TK-10 renal
[13] = system: A498 renal
[14] = system: EKVX NSCLC
[15] = system: HCC-2998 colon
[16] = system: RXF-631 renal
[17] = system: UACC-62 melanoma
[18] = system: SNB-19 CNS
[19] = system: NCI-H460 lung
[20] = system: U251 CNS
[21] = system: OVCAR-8 ovarian
[22] = system: NCI-H226 lung
[23] = system: HCT-15 colon
[24] = system: IGROV1 ovarian
[25] = system: UO-31 renal
[26] = system: RXF 393 renal
[27] = system: A549 NSCLC
[28] = system: OVCAR-5 ovarian
[29] = system: SK-OV-3 ovarian
[30] = system: LXFL 529 NSCLC
[31] = system: CCRF-CEM leukemia
[32] = system: K-562 leukemia
[33] = system: ACHN renal
[34] = system: DMS 114 small cell lung
[35] = system: HT29 colon
[36] = system: SK-MEL-28 melanoma
[37] = system: SW-620 colon
[38] = system: HOP-92 NSCLC
[39] = system: SNB-78 CNS
[40] = system: HL-60(TB) leukemia
[41] = system: NCI-H23 lung
[42] = system: MOLT-4 leukemia
[43] = system: SN12C renal
[44] = system: XF 498 CNS
[45] = system: HOP-18 NSCLC
[46] = system: RPMI-8226 leukemia
[47] = system: M19-MEL melanoma
[48] = system: UACC-257 melanoma
[49] = system: DMS 273 small cell lung
[50] = system: LOX IMVI melanoma
[51] = system: KM20L2 colon
[52] = system: HCT-116 colon
[53] = system: SNB-75 CNS
[54] = system: SF-295 CNS
[55] = system: DLD-1 colon
[56] = system: M14 melanoma
[57] = system: SF-268 CNS
[58] = system: COLO 205 colon

Measured: TGI

C=C1CCC(OC(C)=O)C2(C)C(OC(C)=O)CC3OC3(C)C2C(OC(C)=O)C2C(C)C(=O)OC2C1Cl (stereo not drawn)
> 100 µM: all assays above
